This note sets out measurements from EP0313908A2, “Halogen-substituted phenoxyphenylpropionic acid derivatives” (BAYER AG, priority 1987, dated 1989).

One data set relates to Mais. The settings on record: in vivo. The source says: (§1) Post-emergence-Test Lösungsmittel: 5 Gewichtsteile Aceton Emulgator: 1 Gewichtsteil Alkylarylpolyglykolether
(§2) Zur Herstellung einer zweckmäßigen Wirkstoffzubereitung vermischt man 1 Gewichtsteil Wirkstoff mit der angegebenen Menge Lösungsmittel, gibt die angegebene Menge Emulgator zu und verdünnt das Konzentrat mit Wasser auf die gewünschte Konzentration.
(§3) Mit der Wirkstoffzubereitung spritzt man Testpflanzen, welch eine Höhe von 5 - 15 cm haben so, daß die jeweils gewünschten Wirkstoffmengen pro Flächeneinheit ausgebracht werden. Die Konzentration der Spritzbrühe wird so gewählt, daß in 2000 l Wasser/ha die jeweils gewünschten Wirkstoffmengen ausgebracht werden. Nach drei Wochen wird der Schädigungsgrad der Pflanzen bonitiert in % Schädigung im Vergleich zur Entwicklung der unbehandelten Kontrolle. Es bedeuten: 0 % = keine Wirkung (wie unbehandelte Kontrolle) 100 % = totale Vernichtung

For a further data set, the system named is Baumwollpflanzen. The data set can be described thus: Defoliation and desiccation of the leaves of cotton. To be noted: cotton plants in the greenhouse, 5th leaf fully unfolded, sprayed dripping wet; rated after 1 week against control plants (scale 0, +, ++, +++). The format is in vivo, Baumwolle. The text has this: Entlaubung und Austrocknung der Blätter bei Baumwolle
Lösungsmittel: 30 Gewichtsteile Dimethylformamid Emulgator: 1 Gewichtsteil Polyoxyethylen-Sorbitan-Monolaurat
Zur Herstellung einer zweckmäßigen Wirkstoffzubereitung vermischt man 1 Gewichtsteil Wirkstoff mit den angegebenen Mengen Lösungsmittel und Emulgator und füllt mit Wasser auf die gewünschte Konzentration auf.
Baumwollpflanzen werden im Gewächshaus bis zur vollen Entfaltung des 5. Folgeblattes angezogen. In diesem Stadium werden die Pflanzen tropfnaß mit den Wirkstoffzubereitungen besprüht. Nach 1 Woche werden der Blattfall und das Austrocknen der Blätter im Vergleich zu den Kontrollpflanzen bonitiert. Es bedeuten: 0 kein Austrocknen der Blätter, kein Blattfall + leichtes Austrocknen der Blätter, geringer Blattfall ++ starkes Austrocknen der Blätter, starker Blattfall +++ sehr starkes Austrocknen der Blätter, sehr starker Blattfall

Data set [1] relates to Unkräuter, wie z. B. Amaranthus, Chenopodium, Ipomoea, Portulak und Solanum. Kind of data set: Post-emergence test (herbicidal action on weeds). In kind it is in vivo. The settings on record: post-emergence spray on test plants 5 - 15 cm high, 2000 l Wasser/ha; damage rated after three weeks against untreated control; stated in comparison with Vergleichssubstanz (A).
Excerpt: as §1, §2, §3

Regarding `COC(=O)C(Cl)Cc1cc(Oc2c(Cl)cc(C(F)(F)F)cc2Cl)ccc1Cl` (stereo not drawn) [Beispiel 1, 2-Chlor-3-[3-(2,6-dichlor-4-trifluormethyl-phenoxy)-6-chlor-phenyl]-propionsäure-methylester], the “Selektivität in Mais” value in the data set on Mais is “guter Selektivität”. For the same molecule, in the data set on Baumwollpflanzen, the “Austrocknen der Blätter” value is reported as “sehr starkes” and the Blattfall result is recorded as “sehr starken”. Moreover, in data set [1], the “Wirkung gegen Unkräuter” value is “erheblich stärkere Wirkung”.

Turning to `COC(=O)C(Br)Cc1cc(Oc2c(Cl)cc(C(F)(F)F)cc2Cl)c(Cl)cc1Cl` (stereo not drawn) [Beispiel 2, 2-Brom-3-[3-(2,6-dichlor-4-trifluormethyl-phenoxy)-4,6-dichlorphenyl]-propionsäuremethylester], the “Selektivität in Mais” value in the data set on Mais is “guter Selektivität”. The “Wirkung gegen Unkräuter” value in data set [1] was “erheblich stärkere Wirkung”.

On to `COC(=O)CCc1cc(Oc2c(Cl)cc(C(F)(F)F)cc2Cl)ccc1Cl` [Beispiel 3, 3-[3-(2,6-dichlor-4-trifluormethyl-phenoxy)-6-chlor-phenyl]-propionsäuremethylester], for which, in the data set with Mais, the “Selektivität in Mais” value is recorded as “guter Selektivität”. Besides, in the data set on Baumwollpflanzen, the “Austrocknen der Blätter” value is reported as “sehr starkes” and the Blattfall entry was “sehr starken”. The “Wirkung gegen Unkräuter” value in data set [1] was “erheblich stärkere Wirkung”.

Regarding `COC(=O)CC(Br)c1cc(Oc2c(Cl)cc(C(F)(F)F)cc2Cl)ccc1Cl` (stereo not drawn) [Beispiel 4, 3-Brom-3-[3-(2,6-dichlor-4-trifluormethyl-phenoxy)-6-chlorphenyl]-propionsäuremethylester], in the data set on Mais, the “Selektivität in Mais” value is recorded as “guter Selektivität”. Further, in data set [1], the “Wirkung gegen Unkräuter” value is recorded as “erheblich stärkere Wirkung”.
